Results taken from PubChem BioAssay (NCI).
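A five-concentration, 48-hour dose response in 96-well plates underlies each endpoint, interpolated linearly between surrounding concentrations. Definition used: TGI = concentration required for complete inhibition of growth.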

Key:
Test in all cases: NCI tumour cell line growth inhibition, 48 h
[1] = test system: ACHN renal
[2] = test system: HCT-15 colon
[3] = test system: SNB-19 CNS
[4] = test system: NCI-H522 lung
[5] = test system: OVCAR-3 ovarian
[6] = test system: HOP-62 NSCLC
[7] = test system: SN12C renal
[8] = test system: DMS 114 small cell lung
[9] = test system: DMS 273 small cell lung
[10] = test system: SK-MEL-28 melanoma
[11] = test system: KM12 colon
[12] = test system: UO-31 renal
[13] = test system: K-562 leukemia
[14] = test system: OVCAR-8 ovarian
[15] = test system: SF-539 CNS
[16] = test system: HL-60(TB) leukemia
[17] = test system: DLD-1 colon
[18] = test system: HOP-92 NSCLC
[19] = test system: SF-268 CNS
[20] = test system: TK-10 renal
[21] = test system: NCI-H23 lung
[22] = test system: SW-620 colon
[23] = test system: CAKI-1 renal
[24] = test system: A549 NSCLC
[25] = test system: SK-MEL-2 melanoma
[26] = test system: KM20L2 colon
[27] = test system: A498 renal
[28] = test system: RXF 393 renal
[29] = test system: MOLT-4 leukemia
[30] = test system: SNB-75 CNS
[31] = test system: COLO 205 colon
[32] = test system: NCI-H226 lung
[33] = test system: MALME-3M melanoma
[34] = test system: HCC-2998 colon
[35] = test system: UACC-257 melanoma
[36] = test system: LOX IMVI melanoma
[37] = test system: M19-MEL melanoma
[38] = test system: HT29 colon
[39] = test system: NCI-H460 lung
[40] = test system: UACC-62 melanoma
[41] = test system: OVCAR-5 ovarian
[42] = test system: SK-OV-3 ovarian
[43] = test system: 786-0 renal
[44] = test system: HOP-18 NSCLC
[45] = test system: SNB-78 CNS
[46] = test system: CCRF-CEM leukemia
[47] = test system: SK-MEL-5 melanoma
[48] = test system: SF-295 CNS
[49] = test system: U251 CNS
[50] = test system: IGROV1 ovarian
[51] = test system: EKVX NSCLC
[52] = test system: RPMI-8226 leukemia

Measured: TGI

Clc1ccc(OCCSCCCCCCCCCCSCCOc2ccc(Cl)cc2)cc1
> 100 µM: all assays above
